# Results reported in patent US20120101110A1, “Diaza-spiro[5.5]undecanes” (priority 2010, published 2012).
# pKd, pKi: −log10 of the molar value.
# What was measured:
# human orexin 1 receptors [1] = target: T1, human orexin 1 receptors (Homo sapiens, UniProt O43613); test: Radioligand binding assay ([3H]-SB649868 competition), hOx1R; settings: competition with about 1 nM [3H]-SB649868; CHO or HEK cell membranes expressing human orexin 1 receptor
# T1 sequence (O43613 1-425): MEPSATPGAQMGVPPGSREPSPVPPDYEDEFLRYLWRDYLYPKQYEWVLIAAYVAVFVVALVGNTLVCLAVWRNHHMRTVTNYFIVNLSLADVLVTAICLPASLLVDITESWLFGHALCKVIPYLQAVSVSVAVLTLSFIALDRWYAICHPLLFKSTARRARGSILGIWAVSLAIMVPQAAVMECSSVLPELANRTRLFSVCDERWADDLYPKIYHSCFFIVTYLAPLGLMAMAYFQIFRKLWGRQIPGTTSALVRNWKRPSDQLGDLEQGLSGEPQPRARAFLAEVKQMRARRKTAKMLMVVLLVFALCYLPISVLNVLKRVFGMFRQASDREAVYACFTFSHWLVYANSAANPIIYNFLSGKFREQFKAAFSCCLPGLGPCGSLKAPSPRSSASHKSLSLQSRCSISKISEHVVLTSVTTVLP
# Protocol: (§1) The cell pellet was either stored at −80° C. or used directly. Before the experiments, cell membranes were re-suspended in binding assay buffer (10 mM HEPES, 0.5% (w/v) bovine serum albumin, pH 7.5) by homogenisation with a Polytron homogeniser at 50 Hz for 20 s. Cell membranes were also used as made available by commercial providers.
# (§2) Bound radioactivity was measured, and data were analysed with the program XLFIT or Graphpad Prism. Protein concentration was determined according to the Bradford/BioRad Protein Assay Kit.
# (§3) In competition experiments, cell homogenates (150 μl) were incubated in assay buffer (10 mM HEPES, pH 7.5, 0.5% (w/v) bovine serum albumin, 5 mM MgCl2, 1 mMCaCl2, and tween 0.05%) for 1 h at room temperature with about 1 nM of the radioligand [^3H]-SB649868, 66 Ci/mmole, 50 μl), and with various concentrations of compounds of the invention (50 μl) in triplicates; non-specific binding was determined in the presence of almorexant (10 μM). Reactions were terminated by vacuum filtration, 3 washes of ice cold wash buffer (Tris-HCl pH 7.4/10 mM, with NaCl 154 mM). Competition data is expressed in Table 2 as Kd [μM].
# human orexin 2 receptors [2] = target: T2, human orexin 2 receptors (Homo sapiens, UniProt O43614); test: Calcium accumulation in cells (FLIPR), hOx2R; format: cell-based; settings: cells expressing human orexin 2 receptor; inhibition of orexin A-induced calcium accumulation; Cheng and Prusoff correction
# T2 sequence (O43614 1-444): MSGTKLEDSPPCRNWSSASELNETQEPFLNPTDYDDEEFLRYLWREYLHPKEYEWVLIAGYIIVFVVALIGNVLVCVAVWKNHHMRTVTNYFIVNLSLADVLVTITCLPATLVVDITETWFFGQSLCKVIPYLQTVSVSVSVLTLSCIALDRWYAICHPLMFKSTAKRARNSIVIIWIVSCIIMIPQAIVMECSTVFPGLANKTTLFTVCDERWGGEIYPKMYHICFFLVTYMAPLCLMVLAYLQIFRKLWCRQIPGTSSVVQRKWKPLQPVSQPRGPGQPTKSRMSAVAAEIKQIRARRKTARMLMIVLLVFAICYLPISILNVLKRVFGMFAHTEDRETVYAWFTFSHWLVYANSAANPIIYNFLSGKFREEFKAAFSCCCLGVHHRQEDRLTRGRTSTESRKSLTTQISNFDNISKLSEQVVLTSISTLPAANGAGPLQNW
# Protocol: Cells expressing human orexin 1 or human orexin 2 receptors, were seeded at 8,000 cells/well in 384 well black-walled clear bottom, poly-D-lysine coated plates. After 24 h, the medium was removed and cells were washed once with phosphate buffered saline and serum-deprived overnight in assay buffer (130 mM NaCl, 5.4 mM KCl, 1.8 mM CaCl2, 0.8 mM MgSO4, 0.9 mM NaH2PO4, 25 mM glucose, 20 mM HEPES, pH 7.4) containing bovine serum albumin (1% w/v).
# On the day of the experiment, the cells seeded in black plates were treated with assay buffer containing the Ca^2+sensitive fluorescent dye Fluo-4-AM (2 μM), and probenecid (0.1 mM). After 1 h plates were washed twice with, and resuspended in, assay buffer containing probenecid (0.1 mM) using a multi plate washer. […] Fluorescence measurements were then continued every 1 S for 120 S followed by every 4 S for 240 S.
# The measurements were typically made in two sequences:
# Compounds of formula I were tested usually in a concentration range from 10^−9 M to 10^−5 M. In the second round, performed one hour later (to allow for equilibration), Orexin A was tested either in the absence (calibration curves, Orexin A agonist controls) or in the presence of compounds of formula I to determine antagonism.
# human orexin 1 receptors [3] = target: T1, human orexin 1 receptors; test: Calcium accumulation in cells (FLIPR), hOx1R; settings: for inhibition at 10 µM: read-out: FLIPR hOx1R % inhibition value
# human orexin 2 receptors [4] = target: T2, human orexin 2 receptors; test: Radioligand binding assay ([3H]-SB649868 competition), hOx2R; settings: competition with about 1 nM [3H]-SB649868; CHO or HEK cell membranes expressing human orexin 2 receptor; read-out: binding hOx2R Kd
# Protocol: as §1, §2
# as §3, with “μM).” for “μM). Reactions were terminated by vacuum filtration, 3 washes of ice cold wash buffer (Tris-HCl pH 7.4/10 mM, with NaCl 154 mM). Competition data is expressed in Table 2 as Kd [μM].”
SMILES,pKd (human orexin 1 receptors [1]),pKi (human orexin 2 receptors [2]),pKi (human orexin 1 receptors [3]),pKd (human orexin 2 receptors [4]),inhibition at 10 µM (human orexin 1 receptors [3]) [%]
"Cc1ccnc(N2CCC3(CCCC(=O)N3Cc3cccc4[nH]c(C)cc34)CC2)n1 [Example 96, 1-((2-methyl-1H-indol-4-yl)methyl)-9-(4-methylpyrimidin-2-yl)-1,9-diazaspiro[5.5]undecan-2-one]",5.71,7.74,6.06,7.05,–
"N#Cc1ccnc(N2CCC3(CCCN(Cc4c[nH]c5ccccc45)C3=O)CC2)c1 [Example 10, 2-(2-((1H-indol-3-yl)methyl)-1-oxo-2,9-diazaspiro[5.5]undecan-9-yl)isonicotinonitrile]",5.76,7.70,5.93,6.94,–
"Cc1cc(C#N)cc(N2CCC3(CCCN(Cc4cccc(-c5ncc(C)o5)c4)C3=O)CC2)n1 [Example 29, 2-methyl-6-(2-(3-(5-methyloxazol-2-yl)benzyl)-1-oxo-2,9-diazaspiro[5.5]undecan-9-yl)isonicotinonitrile]",6.04,7.55,6.45,7.00,–
"Cc1cc(C)nc(N2CCC3(CCCN(Cc4ccccc4-c4ncco4)C3=O)CC2)n1 [Example 93, 9-(4,6-dimethylpyrimidin-2-yl)-2-(2-(oxazol-2-yl)benzyl)-2,9-diazaspiro[5.5]undecan-1-one]",5.38,7.80,5.85,7.04,–
"Cc1cccc(N2CCC3(CCCN(Cc4c[nH]c5ccccc45)C3=O)CC2)n1 [Example 9, 2-((1H-indol-3-yl)methyl)-9-(6-methylpyridin-2-yl)-2,9-diazaspiro[5.5]undecan-1-one]",5.61,7.27,5.81,6.58,–
"COc1cccc(N2CCC3(CCCN(Cc4c[nH]c5ccccc45)C3=O)CC2)n1 [Example 65, 2-((1H-indol-3-yl)methyl)-9-(6-methoxypyridin-2-yl)-2,9-diazaspiro[5.5]undecan-1-one]",< 5.00,7.18,6.16,6.23,–
"Cc1cc(C)nc(N2CCC3(CCCN(Cc4n[nH]cc4-c4ccccc4)C3=O)CC2)n1 [Example 106, 9-(4,6-dimethylpyrimidin-2-yl)-2-((4-phenyl-1H-pyrazol-3-yl)methyl)-2,9-diazaspiro[5.5]undecan-1-one]",5.74,8.48,6.12,7.31,–
"COc1cncc(-c2nn(C)nc2CN2CCCC3(CCN(c4nc(C)cc(C)n4)CC3)C2=O)c1 [Example 121, 9-(4,6-dimethylpyrimidin-2-yl)-2-((5-(5-methoxypyridin-3-yl)-2-methyl-2H-1,2,3-triazol-4-yl)methyl)-2,9 diazaspiro[5.5]undecan-1-one]",6.71,8.70,6.50,7.82,–
"COc1cncc(N2CCC3(CCCC(=O)N3Cc3cccc4[nH]ccc34)CC2)n1 [Example 43, 1-((1H-indol-4-yl)methyl)-9-(6-methoxypyrazin-2-yl)-1,9-diazaspiro[5.5]undecan-2-one]",5.73,7.77,6.14,6.21,–
"Cc1cc(C#N)cc(N2CCC3(CCCN(Cc4c[nH]c5ccccc45)C3=O)CC2)n1 [Example 78, 2-(2-((1H-indol-3-yl)methyl)-1-oxo-2,9-diazaspiro[5.5]undecan-9-yl)-6-methylisonicotinonitrile]",5.47,8.52,6.32,6.67,–
"Cc1ccnc(N2CCC3(CCCC(=O)N3Cc3cccc4[nH]ccc34)CC2)n1 [Example 42, 1-((1H-indol-4-yl)methyl)-9-(4-methylpyrimidin-2-yl)-1,9-diazaspiro[5.5]undecan-2-one]",5.28,7.59,–,6.85,34
"Cc1cc(C)nc(N2CCC3(CCCN(Cc4cccc(-c5ncccn5)c4)C3=O)CC2)n1 [Example 31, 9-(4,6-dimethylpyrimidin-2-yl)-2-(3-(pyrimidin-2-yl)benzyl)-2,9-diazaspiro[5.5]undecan-1-one]",5.42,7.04,5.79,6.84,–
"Cc1cc(C)nc(N2CCC3(CCCN(Cc4nc(C)oc4-c4ccccc4)C3=O)CC2)n1 [Example 108, 9-(4,6-dimethylpyrimidin-2-yl)-2-((2-methyl-5-phenyloxazol-4-yl)methyl)-2,9-diazaspiro[5.5]undecan-1-one]",6.07,7.74,6.29,7.14,–
"N#Cc1cccc(N2CCC3(CCCC(=O)N3Cc3cccc4[nH]ccc34)CC2)n1 [Example 92, 6-(1-((1H-indol-4-yl)methyl)-2-oxo-1,9-diazaspiro[5.5]undecan-9-yl)picolinonitrile]",< 5.00,6.98,5.59,5.94,–
"N#Cc1ccnc(N2CCC3(CCCC(=O)N3Cc3cccc4[nH]ccc34)CC2)c1 [Example 91, 2-(1-((1H-indol-4-yl)methyl)-2-oxo-1,9-diazaspiro[5.5]undecan-9-yl)isonicotinonitrile]",< 5.00,7.77,–,6.57,26
"Cc1cc(C#N)cc(N2CCC3(CCCN(Cc4cccc(-c5ncccn5)c4)C3=O)CC2)n1 [Example 28, 2-methyl-6-(1-oxo-2-(3-(pyrimidin-2-yl)benzyl)-2,9-diazaspiro[5.5]undecan-9-yl)isonicotinonitrile]",5.29,7.31,5.96,6.82,–
"N#Cc1ccnc(N2CCC3(CCCN(Cc4cccc(-c5ncccn5)c4)C3=O)CC2)c1 [Example 35, 2-(1-oxo-2-(3-(pyrimidin-2-yl)benzyl)-2,9-diazaspiro[5.5]undecan-9-yl)isonicotinonitrile]",6.40,7.35,6.06,7.01,–
"Cc1cc(C)nc(N2CCC3(CCCN(Cc4ccccc4-n4nccn4)C3=O)CC2)n1 [Example 2, 2-(2-(2H-1,2,3-triazol-2-yl)benzyl)-9-(4,6-dimethylpyrimidin-2-yl)-2,9-diazaspiro[5.5]undecan-1-one]",< 5.00,7.07,–,6.59,22
"O=C1N(Cc2c[nH]c3ccccc23)CCCC12CCN(c1nccc(Cl)n1)CC2 [Example 51, 2-((1H-indol-3-yl)methyl)-9-(4-chloropyrimidin-2-yl)-2,9-diazaspiro[5.5]undecan-1-one]",5.32,7.08,–,6.15,44
"Cc1cc(C)nc(N2CCC3(CCCN(Cc4ccccc4-c4ccco4)C3=O)CC2)n1 [Example 15, 9-(4,6-dimethylpyrimidin-2-yl)-2-(2-(furan-2-yl)benzyl)-2,9-diazaspiro[5.5]undecan-1-one]",5.55,7.89,6.07,6.96,–
"Cc1cnc(N2CCC3(CCCN(Cc4c[nH]c5ccccc45)C3=O)CC2)nc1C [Example 81, 2-((1H-indol-3-yl)methyl)-9-(4,5-dimethylpyrimidin-2-yl)-2,9-diazaspiro[5.5]undecan-1-one]",6.10,7.35,5.69,7.54,–
